In patent US10988456B2, “O-aminoheteroaryl alkynyl-containing compound, preparation method therefor, and use thereof” (SHANGHAI INSTITUTE OF MATERIA MEDICA, CHINESE ACADEMY OF …, priority 2017, dated 2021):

Columns and labels:
Assay in all cases: Inhibition of receptor tyrosine kinase activity at molecular level (ELISA, Poly(Glu,Tyr)4:1 substrate phosphorylation)
Assay type in all cases: biochemical
FGFR1 = FGFR1 (Homo sapiens, UniProt P11362); details: for 10 nM inhibition ratio FGFR1: 10 nM compound, average of two independent experiments
Sequence of FGFR1 (P11362 22-822): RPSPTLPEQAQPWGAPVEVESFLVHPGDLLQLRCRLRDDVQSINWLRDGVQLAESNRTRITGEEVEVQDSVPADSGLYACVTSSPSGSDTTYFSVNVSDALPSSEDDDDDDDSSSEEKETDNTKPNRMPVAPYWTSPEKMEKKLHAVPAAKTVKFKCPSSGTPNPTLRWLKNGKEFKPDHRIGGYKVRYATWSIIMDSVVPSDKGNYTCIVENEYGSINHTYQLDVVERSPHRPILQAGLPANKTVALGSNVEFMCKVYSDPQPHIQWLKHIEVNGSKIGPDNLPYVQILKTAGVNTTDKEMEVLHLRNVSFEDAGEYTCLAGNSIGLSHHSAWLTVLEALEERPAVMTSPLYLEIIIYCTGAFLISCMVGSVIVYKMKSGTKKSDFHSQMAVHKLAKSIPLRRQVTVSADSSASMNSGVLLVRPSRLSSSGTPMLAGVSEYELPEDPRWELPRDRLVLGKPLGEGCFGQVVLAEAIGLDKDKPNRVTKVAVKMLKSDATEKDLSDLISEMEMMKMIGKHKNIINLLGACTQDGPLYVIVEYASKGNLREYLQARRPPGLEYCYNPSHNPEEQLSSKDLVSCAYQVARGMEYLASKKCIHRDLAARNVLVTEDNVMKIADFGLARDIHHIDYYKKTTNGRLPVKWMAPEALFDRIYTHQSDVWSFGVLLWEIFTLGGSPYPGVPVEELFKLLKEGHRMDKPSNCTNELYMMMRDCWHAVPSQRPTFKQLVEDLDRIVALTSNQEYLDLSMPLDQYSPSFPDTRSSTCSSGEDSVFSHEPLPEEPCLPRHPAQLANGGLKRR
Method: (§1) Enzyme reaction substrate Poly(Glu, Tyr)4:1 was diluted with potassium-free PBS (10 mM sodium phosphate buffer, 150 mM NaCl, pH 7.2-7.4) to 20 μg/mL. […] The reaction was conducted under 37° C. for 12-16 hours. After the liquid was removed from the wells, the plate was washed three times with 200 μL/well of T-PBS (PBS containing 0.1% Tween-20), each for 5 minutes. The enzyme plate was dried in 37° C. dryer for 1-2 hours.
(§2) 50 μL ATP solution diluted with buffer (50 mM HEPES pH 7.4, 50 mM MgCl2, 0.5 mM MnCl2, 0.2 mM Na3VO4, 1 mM DTT) to a final concentration of 5 μM was added into each well. The compound was diluted with DMSO to a suitable concentration (1 μL/well) or the well contained the corresponding concentration of DMSO (negative control well) Then various kinase recombinant proteins diluted with 49 μL of reaction buffer was added to initiate the reaction. Each experiment required duplicate enzyme-free control well. The reaction was carried out for 1 hour on a 37° C. Shaker (100 rpm). The plate was washed three times with T-PBS. A dilution of the primary antibody PY99 was added (100 μL/well), and the reaction was conducted in a shaker at 37° C. for 0.5 hr. The plate was washed three times with T-PBS. A dilution of the horseradish peroxidase-labeled goat anti-mouse IgG secondary antibody was added (100 μL/well), and the reaction was conducted in a shaker at 37° C. for 0.5 hour. Plate was washed with T-PBS for three times. 2 mg/mL OPD coloration solution (diluted with 0.1 M citric acid-sodium citrate buffer containing 0.03% H2O2 (pH=5.4)) was added (100 μL/well), reacted for 1-10 minutes at 25° C. in dark. The reaction was quenched with 2M H2SO4 (50 μL/well), and read at 490 nm using a tunable microplate reader SPECTRA MAX 190.
(§3) The inhibition ratio of the sample was determined by the following formula: […]
(§4) The IC50 values were obtained via four-parameter regression analysis using the software supplied with the microplate reader.

KDR = KDR (Homo sapiens, UniProt P35968); details: 10 nM compound; average of two independent experiments
Sequence of KDR (P35968 20-1356): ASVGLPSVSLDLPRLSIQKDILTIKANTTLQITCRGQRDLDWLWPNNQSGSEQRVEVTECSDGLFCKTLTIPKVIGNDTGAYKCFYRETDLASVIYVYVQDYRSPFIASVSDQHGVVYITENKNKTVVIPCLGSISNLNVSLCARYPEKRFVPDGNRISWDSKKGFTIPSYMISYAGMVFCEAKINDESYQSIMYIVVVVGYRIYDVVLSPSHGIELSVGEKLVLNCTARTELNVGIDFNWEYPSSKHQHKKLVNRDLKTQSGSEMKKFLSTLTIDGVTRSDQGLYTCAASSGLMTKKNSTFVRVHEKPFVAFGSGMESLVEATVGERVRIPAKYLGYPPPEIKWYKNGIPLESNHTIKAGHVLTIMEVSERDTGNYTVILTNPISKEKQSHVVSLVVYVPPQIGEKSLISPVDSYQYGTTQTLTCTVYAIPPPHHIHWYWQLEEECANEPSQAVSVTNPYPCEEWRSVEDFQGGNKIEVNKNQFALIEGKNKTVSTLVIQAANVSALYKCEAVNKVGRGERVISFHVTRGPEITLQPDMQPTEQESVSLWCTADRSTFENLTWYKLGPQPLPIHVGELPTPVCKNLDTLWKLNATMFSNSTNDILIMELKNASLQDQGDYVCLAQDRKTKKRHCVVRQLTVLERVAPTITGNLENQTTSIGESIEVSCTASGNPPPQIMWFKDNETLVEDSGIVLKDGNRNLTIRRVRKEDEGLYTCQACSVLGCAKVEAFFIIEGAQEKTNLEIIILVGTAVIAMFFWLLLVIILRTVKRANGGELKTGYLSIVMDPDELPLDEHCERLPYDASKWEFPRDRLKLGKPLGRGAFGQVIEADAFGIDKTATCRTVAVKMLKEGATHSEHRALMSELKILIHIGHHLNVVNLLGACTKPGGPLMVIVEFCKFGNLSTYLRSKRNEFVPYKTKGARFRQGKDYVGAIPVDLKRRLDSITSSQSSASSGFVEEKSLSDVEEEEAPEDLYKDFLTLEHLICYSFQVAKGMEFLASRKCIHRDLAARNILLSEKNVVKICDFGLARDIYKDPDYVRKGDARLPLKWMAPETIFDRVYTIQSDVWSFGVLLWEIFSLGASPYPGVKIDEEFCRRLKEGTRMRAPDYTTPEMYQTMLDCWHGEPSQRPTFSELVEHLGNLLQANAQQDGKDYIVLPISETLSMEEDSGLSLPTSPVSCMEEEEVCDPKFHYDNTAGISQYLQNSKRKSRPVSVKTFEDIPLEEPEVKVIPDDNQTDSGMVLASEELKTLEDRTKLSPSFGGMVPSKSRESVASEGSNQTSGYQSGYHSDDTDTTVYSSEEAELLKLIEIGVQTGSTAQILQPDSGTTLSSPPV
Method: as §1, §2, §3, §4

RET = RET (Homo sapiens, UniProt P07949); details: 10 nM compound; average of two independent experiments
Sequence of RET (P07949 29-1114): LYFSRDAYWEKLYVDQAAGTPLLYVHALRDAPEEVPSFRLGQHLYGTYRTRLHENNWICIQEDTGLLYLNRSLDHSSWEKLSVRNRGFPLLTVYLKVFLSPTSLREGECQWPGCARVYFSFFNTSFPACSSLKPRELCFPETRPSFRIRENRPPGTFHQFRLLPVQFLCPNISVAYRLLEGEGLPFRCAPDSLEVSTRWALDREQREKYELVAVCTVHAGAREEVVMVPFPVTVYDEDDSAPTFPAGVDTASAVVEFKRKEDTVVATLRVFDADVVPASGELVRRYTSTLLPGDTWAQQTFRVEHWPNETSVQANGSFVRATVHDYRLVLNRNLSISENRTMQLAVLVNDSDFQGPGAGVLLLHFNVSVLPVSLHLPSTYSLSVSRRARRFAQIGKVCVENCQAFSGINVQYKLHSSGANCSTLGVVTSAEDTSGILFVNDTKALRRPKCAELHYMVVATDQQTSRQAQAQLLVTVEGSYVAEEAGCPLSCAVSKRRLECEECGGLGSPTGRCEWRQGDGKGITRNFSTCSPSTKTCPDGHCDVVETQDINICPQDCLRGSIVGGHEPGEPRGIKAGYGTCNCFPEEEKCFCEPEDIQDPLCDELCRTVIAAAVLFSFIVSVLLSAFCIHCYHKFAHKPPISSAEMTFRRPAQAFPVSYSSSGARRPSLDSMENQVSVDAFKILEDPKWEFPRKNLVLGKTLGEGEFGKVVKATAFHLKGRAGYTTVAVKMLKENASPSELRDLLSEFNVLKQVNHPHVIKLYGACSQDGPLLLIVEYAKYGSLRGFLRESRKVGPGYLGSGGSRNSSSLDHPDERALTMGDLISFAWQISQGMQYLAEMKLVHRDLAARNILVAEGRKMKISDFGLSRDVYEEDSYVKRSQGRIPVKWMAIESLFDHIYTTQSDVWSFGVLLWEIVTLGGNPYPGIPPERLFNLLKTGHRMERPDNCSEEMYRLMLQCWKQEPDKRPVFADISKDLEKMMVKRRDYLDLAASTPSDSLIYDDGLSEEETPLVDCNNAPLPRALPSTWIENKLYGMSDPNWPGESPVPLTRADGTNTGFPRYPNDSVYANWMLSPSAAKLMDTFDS
Method: as §1, §2, §3, §4

Compound	10 nM inhibition ratio FGFR1 (FGFR1)	10 nM inhibition ratio KDR (KDR)	10 nM inhibition ratio RET (RET)	inhibition ratio FGFR1 (100 nM) (FGFR1; 100 nM compound)
CN1CCN(Cc2ccc(NC(=O)c3ccc(Cl)c(C#Cc4cc(C#N)cnc4N)c3)cc2C(F)(F)F)CC1 [Example 21]	44.3	32.0	58.1	–
COc1cnc(N)c(C#Cc2cc(C(=O)Nc3ccc(CN4CCN(C)CC4)c(C(F)(F)F)c3)ccc2Cl)c1 [Example 22]	75.1	24.9	59.3	–
CN1CCN(Cc2ccc(NC(=O)c3ccc(Cl)c(C#Cc4cc(OC(F)(F)F)cnc4N)c3)cc2C(F)(F)F)CC1 [Example 23]	74.1	33.1	60.0	–
CN1CCN(Cc2ccc(NC(=O)c3ccc(Cl)c(C#Cc4cc(OC5CC5)cnc4N)c3)cc2C(F)(F)F)CC1 [Example 24]	64.1	23.5	66.1	–
CN1CCN(Cc2ccc(NC(=O)c3ccc(Cl)c(C#Cc4cc(OC5COC5)cnc4N)c3)cc2C(F)(F)F)CC1 [Example 25]	54.5	33.2	49.9	–
CN1CCN(Cc2ccc(NC(=O)c3ccc(Cl)c(C#Cc4cc(OCCO)cnc4N)c3)cc2C(F)(F)F)CC1 [Example 26]	77.2	24.3	79.4	–
COCCOc1cnc(N)c(C#Cc2cc(C(=O)Nc3ccc(CN4CCN(C)CC4)c(C(F)(F)F)c3)ccc2Cl)c1 [Example 27]	78.2	34.1	69.5	–
CNCCOc1cnc(N)c(C#Cc2cc(C(=O)Nc3ccc(CN4CCN(C)CC4)c(C(F)(F)F)c3)ccc2Cl)c1 [Example 28]	68.5	28.7	79.3	–
CN(C)CCOc1cnc(N)c(C#Cc2cc(C(=O)Nc3ccc(CN4CCN(C)CC4)c(C(F)(F)F)c3)ccc2Cl)c1 [Example 29]	44.9	14.3	55.2	–
CN1CCN(Cc2ccc(NC(=O)c3ccc(Cl)c(C#Cc4cc(CO)cnc4N)c3)cc2C(F)(F)F)CC1 [Example 30]	55.2	5.8	77.8	–
COCc1cnc(N)c(C#Cc2cc(C(=O)Nc3ccc(CN4CCN(C)CC4)c(C(F)(F)F)c3)ccc2Cl)c1 [Example 31]	59.3	35.1	67.8	–
CN1CCN(Cc2ccc(NC(=O)c3ccc(Cl)c(C#Cc4cc(COC(F)(F)F)cnc4N)c3)cc2C(F)(F)F)CC1 [Example 32]	66.3	37.2	70.8	–
CNCc1cnc(N)c(C#Cc2cc(C(=O)Nc3ccc(CN4CCN(C)CC4)c(C(F)(F)F)c3)ccc2Cl)c1 [Example 33]	49.8	35.1	77.8	–
CN(C)Cc1cnc(N)c(C#Cc2cc(C(=O)Nc3ccc(CN4CCN(C)CC4)c(C(F)(F)F)c3)ccc2Cl)c1 [Example 34]	44.3	18.0	57.8	–
CNc1cnc(N)c(C#Cc2cc(C(=O)Nc3ccc(CN4CCN(C)CC4)c(C(F)(F)F)c3)ccc2Cl)c1 [Example 35]	57.9	32.1	44.3	–
CN1CCN(Cc2ccc(NC(=O)c3ccc(Cl)c(C#Cc4cc(N(C)C)cnc4N)c3)cc2C(F)(F)F)CC1 [Example 36]	49.9	12.1	56.3	–

Compound	10 nM inhibition ratio FGFR1 (FGFR1)	10 nM inhibition ratio KDR (KDR)	10 nM inhibition ratio RET (RET)	inhibition ratio FGFR1 (100 nM) (FGFR1; 100 nM compound)
CC(=O)Nc1cnc(N)c(C#Cc2cccc(C(=O)Nc3ccc(CN4CCN(C)CC4)c(C(F)(F)F)c3)c2)c1 [Example 37]	48.1	33.2	66.3	–
CN1CCN(Cc2ccc(NC(=O)c3cccc(C#Cc4cc(NC(=O)C5CC5)cnc4N)c3)cc2C(F)(F)F)CC1 [Example 38]	51.8	44.1	65.3	–
C=CC(=O)Nc1cnc(N)c(C#Cc2cc(C(=O)Nc3ccc(CN4CCN(C)CC4)c(C(F)(F)F)c3)ccc2Cl)c1 [Example 39]	53.4	36.4	88.0	–
CN(C)CC=CC(=O)Nc1cnc(N)c(C#Cc2cc(C(=O)Nc3ccc(CN4CCN(C)CC4)c(C(F)(F)F)c3)ccc2Cl)c1 [Example 40]	58.2	36.6	77.3	–
CN1CCC(Oc2ccc(NC(=O)c3ccc(Cl)c(C#Cc4cccnc4N)c3)cc2C(F)(F)F)CC1 [Example 41]	53.4	35.4	77.3	–
CN1CCN(Cc2ccc(NC(=O)c3ccc(Cl)c(C#Cc4nccnc4N)c3)cc2C(F)(F)F)CC1 [Example 46]	48.5	43.1	95.1	–
CN1CCN(Cc2ccc(NC(=O)c3cccc(C#Cc4nc(F)cnc4N)c3)cc2C(F)(F)F)CC1 [Example 47]	55.1	40.8	89.1	–
CN1CCN(Cc2ccc(NC(=O)c3cccc(C#Cc4nc(CO)cnc4N)c3)cc2C(F)(F)F)CC1 [Example 48]	48.7	34.3	78.0	–
CN1CCN(Cc2ccc(NC(=O)c3ccc(Cl)c(C#Cc4c(F)ccnc4N)c3)cc2C(F)(F)F)CC1 [Example 49]	77.1	33.2	69.5	–
CC(C)(C)OC(=O)N1CCN(Cc2ccc(NC(=O)c3ccc(Cl)c(C#Cc4cccnc4N)c3)cc2C(F)(F)F)CC1 [Example 50]	56.3	27.8	55.1	–
Nc1ncccc1C#Cc1cc(C(=O)Nc2ccc(CN3CCNCC3)c(C(F)(F)F)c2)ccc1Cl [Example 51]	67.9	38.2	79.4	–
CN1CCN(Cc2ccc(NC(=O)c3ccc(Cl)c(C#Cc4cccnc4N)c3)cc2C(F)(F)F)CC1.Cl [Example 52]	75.2	40.2	89.3	–
[2H]C([2H])([2H])N1CCN(Cc2ccc(NC(=O)c3ccc(Cl)c(C#Cc4cccnc4N)c3)cc2C(F)(F)F)CC1 [Example 53]	78.3	42.1	87.0	–
CNc1cncc(C#Cc2cc(C(=O)Nc3ccc(CN4CCN(C)CC4)c(C(F)(F)F)c3)ccc2C)c1 [Example A34, reference compound]	33.2	39.5	16.4	–
Cc1ncccc1C#Cc1cc(C(=O)Nc2ccc(CN3CCN(C)CC3)c(C(F)(F)F)c2)ccc1Cl [HuFGFR143, reference compound]	–	26.4	35.2	19.9
